Tested on: ApoE-KO mice
Assay: Test Example 2: influence of EMIQ and QC on atherosclerosis, thoracic-abdominal aortic lesion area
Assay type: in vivo
Conditions: low dose 33 μmol/kg in feed, 14 weeks, versus control group (G1), FIG. 2
Method: The EMIQ prepared in Preparation Example 2 and the QC prepared in Preparation Example 3 were orally administered for 14 weeks to ApoE-KO mice in order to elucidate the atherosclerosis progression inhibiting effect of these substances. The atherosclerosis progression inhibiting effect was evaluated based on the atherosclerotic lesion area rate (%) at the thoracic-abdominal aorta of the ApoE-KO mice.
Specifically, before the test the test animals (ApoE-KO mice) were housed for 11 days for environmental acclimation and were then assigned, taking into consideration the body weight and total serum cholesterol (T-cho value), into the following four groups (8 animals in each group) in a completely randomized design using a group assignment system (Statlight #11 Group Assignment, Yukms Co., Ltd., Tokyo): the control group (a group not receiving either substance, G1), a group receiving quercetin admixed in the feed at 33 μmol/kg (low-dose QC group, G2), a group receiving EMIQ admixed in the feed at 33 μmol/kg (low-dose EMIQ group, G3), and a group receiving EMIQ admixed in the feed at 330 μmol/kg (high-dose EMIQ group, G4). […]

O=c1c(O)c(-c2ccc(O)c(O)c2)oc2cc(O)cc(O)c12 [QC, quercetin]
thoracic-abdominal aortic atherosclerotic lesion area rate (%): no difference
